Each structure is given as a SMILES string.

As usually defined, the EC30 is the point of the concentration-response curve where the effect stands at 30%.

T1 sequence (P13569 with tags, fused parts or gaps DEL508-508): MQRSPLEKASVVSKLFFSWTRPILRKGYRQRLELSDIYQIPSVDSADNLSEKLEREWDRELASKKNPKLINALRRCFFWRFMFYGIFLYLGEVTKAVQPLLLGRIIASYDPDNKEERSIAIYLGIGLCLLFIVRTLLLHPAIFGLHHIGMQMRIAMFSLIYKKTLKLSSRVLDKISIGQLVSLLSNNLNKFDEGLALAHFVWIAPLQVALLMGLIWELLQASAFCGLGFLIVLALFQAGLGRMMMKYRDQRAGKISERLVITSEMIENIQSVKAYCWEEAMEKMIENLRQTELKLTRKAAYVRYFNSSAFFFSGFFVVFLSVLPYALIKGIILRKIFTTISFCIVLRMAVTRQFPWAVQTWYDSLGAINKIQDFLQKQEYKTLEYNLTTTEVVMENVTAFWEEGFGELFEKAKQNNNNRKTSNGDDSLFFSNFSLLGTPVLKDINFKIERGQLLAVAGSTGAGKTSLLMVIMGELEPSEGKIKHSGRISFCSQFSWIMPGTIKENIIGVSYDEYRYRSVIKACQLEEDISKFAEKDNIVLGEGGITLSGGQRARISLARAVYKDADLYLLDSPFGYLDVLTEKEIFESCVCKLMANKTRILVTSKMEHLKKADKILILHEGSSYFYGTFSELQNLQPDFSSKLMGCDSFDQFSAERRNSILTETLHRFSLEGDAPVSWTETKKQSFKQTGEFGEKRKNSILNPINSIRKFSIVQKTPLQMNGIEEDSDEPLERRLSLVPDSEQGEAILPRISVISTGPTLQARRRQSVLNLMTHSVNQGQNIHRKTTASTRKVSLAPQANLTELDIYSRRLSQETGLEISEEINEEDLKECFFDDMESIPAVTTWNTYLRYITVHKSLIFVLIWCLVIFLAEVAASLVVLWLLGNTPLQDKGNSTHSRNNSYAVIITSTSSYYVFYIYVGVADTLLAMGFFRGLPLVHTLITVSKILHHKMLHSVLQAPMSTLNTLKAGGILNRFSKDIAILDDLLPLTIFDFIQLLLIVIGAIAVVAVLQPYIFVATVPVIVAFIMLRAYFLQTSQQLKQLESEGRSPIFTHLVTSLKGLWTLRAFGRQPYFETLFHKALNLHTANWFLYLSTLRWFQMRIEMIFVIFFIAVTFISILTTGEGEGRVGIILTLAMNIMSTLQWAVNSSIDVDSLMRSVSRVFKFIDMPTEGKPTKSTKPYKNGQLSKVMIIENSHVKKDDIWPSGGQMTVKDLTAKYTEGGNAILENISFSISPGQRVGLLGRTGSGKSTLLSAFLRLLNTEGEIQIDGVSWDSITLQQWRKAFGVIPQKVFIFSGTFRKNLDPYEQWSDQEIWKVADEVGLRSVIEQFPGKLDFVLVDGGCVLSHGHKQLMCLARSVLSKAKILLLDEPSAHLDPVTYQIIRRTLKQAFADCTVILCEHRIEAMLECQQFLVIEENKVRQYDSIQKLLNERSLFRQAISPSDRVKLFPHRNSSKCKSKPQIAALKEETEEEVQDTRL

One assay concerns the target T1, F508del (Homo sapiens, UniProt P13569, DEL508-508).
T1 construct: expressed in transfected cells
In words: Protocol 2: FRET membrane potential optical assay (VIPR), identification of correction compounds. The assay is classed as cell-based. The settings on record: F508del CFTR modulator activity; compounds of Table 1. A digest of the protocol:
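Single-addition HTS format: F508del-expressing NIH3T3 cells pre-incubated 16 hrs at 37° C. ± compound, with 27° C. culture as positive control. Channel activation by forskolin 10 μM and genistein 20 μM upon switch to gluconate bath, pH 7.4; read-out is FRET-based depolarization signal.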
Consider `CC(C)COc1cc(F)cc(-c2ccc(C(=O)NS(=O)(=O)c3cccc(N)n3)c(N3CCC(C)C(C)C3)n2)c1` (single isomer, unassigned) [Compound 2178, N-[(6-amino-2-pyridyl)sulfonyl]-2-(3,4-dimethyl-1-piperidyl)-6-(3-fluoro-5-isobutoxy-phenyl)pyridine-3-carboxamide], for which the concentration for an effect of 30% (EC30) result is on record as “+++ (“+++” means <3 uM)”.

The same assay, now with this note: F508del CFTR modulator activity; compounds of Table 1; read-out: EC30.
As for `C[C@@H]1CN(c2nc(-c3cc(F)ccc3F)ccc2C(=O)NS(=O)(=O)N2CC[C@H](N)C2)C(C)(C)C1` [Compound 2489, N-[(3S)-3-aminopyrrolidin-1-yl]sulfonyl-6-(2,5-difluorophenyl)-2-[(4S)-2,2,4-trimethylpyrrolidin-1-yl]pyridine-3-carboxamide], the EC30 is 3000 to 10000 nM.

On to `Cc1ccc(-c2ccc(C(=O)NS(=O)(=O)N3CC[C@H](N)C3)c(N3C[C@@H](C)CC3(C)C)n2)cc1C` [Compound 2605, N-[(3S)-3-aminopyrrolidin-1-yl]sulfonyl-6-(3,4-dimethylphenyl)-2-[(4S)-2,2,4-trimethylpyrrolidin-1-yl]pyridine-3-carboxamide], for which the EC30 lay within 3000 to 10000 nM.

Take `CC(C)COc1cc(F)cc(-c2ccc(C(=O)NS(=O)(=O)c3cccc(N)n3)c(N3CCC(O)CC3)n2)c1` [Compound 2323, N-[(6-amino-2-pyridyl)sulfonyl]-6-(3-fluoro-5-isobutoxy-phenyl)-2-(4-hydroxy-1-piperidyl)pyridine-3-carboxamide]: the 30% effect concentration (EC30) was in the range of 3000 to 10000 nM.

In the case of `Cc1cc(-c2ccc(C(=O)NS(=O)(=O)c3cccc(N)n3)c(N3C[C@@H](C)CC3(C)C)n2)cc(OCC(C)C)n1` [Compound 2010, N-[(6-amino-2-pyridyl)sulfonyl]-6-(2-isobutoxy-6-methyl-4-pyridyl)-2-[(4S)-2,2,4-trimethylpyrrolidin-1-yl]pyridine-3-carboxamide], the concentration for an effect of 30% (EC30) is below 3000 nM.

Regarding `CC1CN(c2ncccc2C(=O)NS(=O)(=O)c2cccc(OC3CC4CCC3(C)C4(C)C)n2)C(C)(C)C1` (centres unmarked) [Compound 2059, N—[[6-(1,7,7-trimethylnorbornan-2-yl)oxy-2-pyridyl]sulfonyl]-2-(2,2,4-trimethylpyrrolidin-1-yl)pyridine-3-carboxamide], the 30% effect concentration (EC30) is below 3000 nM.

On to `CC1CN(c2ncccc2C(=O)NS(=O)(=O)c2cccc(OCc3c(Cl)cccc3Cl)n2)C(C)(C)C1` (centres unmarked) [Compound 2390, N—[[6-[(2,6-dichlorophenyl)methoxy]-2-pyridyl]sulfonyl]-2-(2,2,4-trimethylpyrrolidin-1-yl)pyridine-3-carboxamide], for which the EC30 is below 3000 nM.

With `CC1CN(c2ncccc2C(=O)NS(=O)(=O)c2cccc(NCCC(=O)OC(C)(C)C)n2)C(C)(C)C1` (centres unmarked) [Compound 2495, tert-butyl 3-[[6-[[2-(2,2,4-trimethylpyrrolidin-1-yl)pyridine-3-carbonyl]sulfamoyl]-2-pyridyl]amino]propanoate], the EC30 is below 3000 nM.

For `CC(C)COc1cc(F)cc(-c2ccc(C(=O)NS(=O)(=O)c3cccc(N)n3)c(N3CC4(CCC4)CC3(C)C)n2)c1` [Compound 2589, N-[(6-amino-2-pyridyl)sulfonyl]-2-(6,6-dimethyl-7-azaspiro[3.4]octan-7-yl)-6-(3-fluoro-5-isobutoxy-phenyl)pyridine-3-carboxamide], the 30% effect concentration (EC30) is below 3000 nM.

With `COc1ccc(F)c(-c2ccc(C(=O)NS(=O)(=O)c3ccc[nH]c3=O)c(N3C[C@@H](C)CC3(C)C)n2)c1` [Compound 2606, 6-(2-fluoro-5-methoxy-phenyl)-N-[(2-oxo-1H-pyridin-3-yl)sulfonyl]-2-[(4S)-2,2,4-trimethylpyrrolidin-1-yl]pyridine-3-carboxamide], the EC30 was below 3000 nM.

On to `CC1CN(c2ncccc2C(=O)NS(=O)(=O)c2cccc(Nc3c(F)cccc3F)n2)C(C)(C)C1` (centres unmarked) [Compound 2513, N—[[6-(2,6-difluoroanilino)-2-pyridyl]sulfonyl]-2-(2,2,4-trimethylpyrrolidin-1-yl)pyridine-3-carboxamide], for which the EC30 fell in the range of 3000 to 10000 nM.

Still in this assay, the particulars now being: Table 3; compounds of Table 1 as modulators of CFTR activity; protocol not stated.
For `CC(C)COc1cc(F)cc(-c2ccc(C(=O)NS(=O)(=O)c3cccc(N)n3)c(N3CCCC3)n2)c1` [Compound 592, N-[(6-amino-2-pyridyl)sulfonyl]-6-(3-fluoro-5-isobutoxy-phenyl)-2-pyrrolidin-1-yl-pyridine-3-carboxamide], the EC30 result is on record as “+++ (“+++” means <3 uM)”.

`CNc1cccc(S(=O)(=O)NC(=O)c2ccc(C(C)(C)C)nc2Oc2c(C)cc(C)cc2C)n1` [Compound 262, 6-tert-butyl-N-[[6-(methylamino)-2-pyridyl]sulfonyl]-2-(2,4,6-trimethylphenoxy)pyridine-3-carboxamide]: the EC30 entry is listed as “+++ (“+++” means <3 uM)”.

Take `CC(C)COc1cc(F)cc(-c2ccc(C(=O)NS(=O)(=O)c3cccc(N)n3)c(N3[C@@H](C)CC[C@@H]3C)n2)c1` [Compound 458, N-[(6-amino-2-pyridyl)sulfonyl]-2-[(2S,5S)-2,5-dimethylpyrrolidin-1-yl]-6-(3-fluoro-5-isobutoxy-phenyl)pyridine-3-carboxamide]: the concentration for an effect of 30% (EC30) entry was “+++ (“+++” means <3 uM)”.

With `Cc1cc(C)c(Oc2nc(C(C)(C)C)ccc2C(=O)NS(=O)(=O)c2cccc(N)n2)c(C)c1` [Compound 228, N-[(6-amino-2-pyridyl)sulfonyl]-6-tert-butyl-2-(2,4,6-trimethylphenoxy)pyridine-3-carboxamide], the concentration for an effect of 30% (EC30) result is given as “+++ (“+++” means <3 uM)”.

For the compound `Cc1cccc(C)c1Cn1nc(C(C)(C)C)cc1C(=O)NS(=O)(=O)c1cccs1` [Compound 77, 5-tert-butyl-2-[(2,6-dimethylphenyl)methyl]-N-(2-thienylsulfonyl)pyrazole-3-carboxamide], the EC30 result is listed as “+++ (“+++” means <3 uM)”.

With `COc1ncccc1S(=O)(=O)NC(=O)c1ccc(C(C)(C)C)nc1Oc1ccc(C)cc1C` [Compound 89, 6-tert-butyl-2-(2,4-dimethylphenoxy)-N-[(2-methoxy-3-pyridyl)sulfonyl]pyridine-3-carboxamide], the EC30 entry is on record as “+++ (“+++” means <3 uM)”.

On to `Cc1cc(C)c(Cn2nc(C(C)(C)C)cc2C(=O)NS(=O)(=O)c2cccc3ncccc23)c(C)c1` [Compound 352, 5-tert-butyl-N-(5-quinolylsulfonyl)-2-[(2,4,6-trimethylphenyl)methyl]pyrazole-3-carboxamide], for which the concentration for an effect of 30% (EC30) entry was “+++ (“+++” means <3 uM)”.

`C=Cc1ccc(C(=O)NS(=O)(=O)c2cccc(N)n2)c(Oc2c(C)cc(C)cc2C)n1` [Compound 430, N-[(6-amino-2-pyridyl)sulfonyl]-2-(2,4,6-trimethylphenoxy)-6-vinyl-pyridine-3-carboxamide]: the EC30 result was “+++ (“+++” means <3 uM)”.

Regarding `Cc1cc(C)c(CN2Cc3ccccc3C2C(=O)NS(=O)(=O)c2cccc(N)n2)c(C)c1` (centres unmarked) [Compound 73, N-[(6-amino-2-pyridyl)sulfonyl]-2-[(2,4,6-trimethylphenyl)methyl]isoindoline-1-carboxamide], the 30% effect concentration (EC30) entry is listed as “+++ (“+++” means <3 uM)”.

Regarding `CC(C)Oc1ccc(-c2ccc(C(=O)NS(=O)(=O)c3cccc(N)n3)c(N3CCCC(CC(F)(F)F)C3)n2)cn1` (centres unmarked) [Compound 656, N-[(6-amino-2-pyridyl)sulfonyl]-6-(6-isopropoxy-3-pyridyl)-2-[3-(2,2,2-trifluoroethyl)-1-piperidyl]pyridine-3-carboxamide], the 30% effect concentration (EC30) result was “+++ (“+++” means <3 uM)”.

`CC(C)COc1cc(F)cc(-c2ccc(C(=O)NS(=O)(=O)C3CCNC3=O)c(N3CC(C)CC3(C)C)n2)c1` (centres unmarked) [Compound 466, 6-(3-fluoro-5-isobutoxy-phenyl)-N-(2-oxopyrrolidin-3-yl)sulfonyl-2-(2,2,4-trimethylpyrrolidin-1-yl)pyridine-3-carboxamide]: the EC30 result is “+++ (“+++” means <3 uM)”.

As to `CC(C)(C)c1ccc(C(=O)NS(=O)(=O)c2ccccc2)c(OCc2ccccn2)n1` [Compound 154, N-(benzenesulfonyl)-6-tert-butyl-2-(2-pyridylmethoxy)pyridine-3-carboxamide], the EC30 entry is “+++ (“+++” means <3 uM)”.

As for `COc1cccc(S(=O)(=O)NC(=O)c2cc3ccccc3n2Cc2c(C)cc(C)cc2C)n1` [Compound 253, N-[(6-methoxy-2-pyridyl)sulfonyl]-1-[(2,4,6-trimethylphenyl)methyl]indole-2-carboxamide], the 30% effect concentration (EC30) result is given as “+++ (“+++” means <3 uM)”.

On to `CC(C)Oc1ccc(-c2ccc(C(=O)NS(=O)(=O)c3ccc[nH]c3=O)c(N3C[C@@H](C)CC3(C)C)n2)cn1` [Compound 497, 6-(6-isopropoxy-3-pyridyl)-N-[(2-oxo-1H-pyridin-3-yl)sulfonyl]-2-[(4S)-2,2,4-trimethylpyrrolidin-1-yl]pyridine-3-carboxamide], for which the EC30 result is “+++ (“+++” means <3 uM)”.

Consider `Cc1cc(C)c(Cn2c(C(=O)NS(=O)(=O)c3cccc(N)c3)cc3cc(Cl)ccc32)c(C)c1` [Compound 344, N-(3-aminophenyl)sulfonyl-5-chloro-1-[(2,4,6-trimethylphenyl)methyl]indole-2-carboxamide], for which the concentration for an effect of 30% (EC30) entry is on record as “+++ (“+++” means <3 uM)”.

As to `CC(C)Oc1ccc(-c2ccc(C(=O)NS(=O)(=O)c3cccc(N)n3)c(N3CCCC(C)C3C)n2)cn1` (centres unmarked) [Compound 353, N-[(6-amino-2-pyridyl)sulfonyl]-2-(2,3-dimethyl-1-piperidyl)-6-(6-isopropoxy-3-pyridyl)pyridine-3-carboxamide], the concentration for an effect of 30% (EC30) entry is “+++ (“+++” means <3 uM)”.

As for `Cc1cc(C)c(Oc2nc(C)ccc2C(=O)NS(=O)(=O)c2cccc(NC(C)C)n2)c(C)c1` [Compound 482, N-[[6-(isopropylamino)-2-pyridyl]sulfonyl]-6-methyl-2-(2,4,6-trimethylphenoxy)pyridine-3-carboxamide], the 30% effect concentration (EC30) entry is reported as “+++ (“+++” means <3 uM)”.

With `CC(C)COc1cc(F)cc(-c2ccc(C(=O)NS(=O)(=O)c3cccc(N)n3)c(N3CC(c4ccccc4)CC3C)n2)c1` (centres unmarked) [Compound 488, N-[(6-amino-2-pyridyl)sulfonyl]-6-(3-fluoro-5-isobutoxy-phenyl)-2-(2-methyl-4-phenyl-pyrrolidin-1-yl)pyridine-3-carboxamide], the 30% effect concentration (EC30) entry is on record as “+++ (“+++” means <3 uM)”.
